For data set [1], the target named is T1, dopaminergic D2LR (Homo sapiens, UniProt P14416).
T1 construct: expressed in transfected cells; host or cells: HEK-293
In words: Radioligand binding assay, D2LR, [3H]-Raclopride. The following applies: human D2L receptor stably expressed in HEK-293 cells; read-out: Ki D2 [3H]-Raclopride.

Data set [2] in a line: Lipophilicity by RP-TLC. In kind it is physicochemical. The following applies: RP-18 TLC, water/methanol, extrapolated to 100% water. Here is the method:
For comparison, the active arylmethyl-triazine compounds previously found (1–3) were also examined. Stationary phase RP-18 and mixtures of water/methanol […] as a mobile phase were employed. RM values were calculated from the RF data obtained. […] The regression coefficients (r^2) determined for all compounds were higher than 0.95. On the basis of the linear relationship between RM values and the volume fraction of methanol, values of RM0 in the systems analyzed corresponding to 100% of water were obtained by extrapolation. RM0 values received for the compounds tested ranged from 3.14 to 4.49 (Figure 6).
The mobile phases were prepared by mixing the respective amounts of water and organic modifier (methanol) in a range from 40 to 90% (v/v) in 5% increments. TLC was performed on Silica gel 60RP-18 F254 plates (7 × 10 cm) plates (Merck, Darmstadt, Germany). Methanol was used to prepare the solutions of the substances. Solutions (10 µL) of the analyzed compounds were applied to the plates as 5 mm bands, 10 mm apart and 10 mm from the lower edge and sides of the plates, by using Linomat V applicator (Camag, Basel, Switzerland). The vertical chamber (Sigma–Aldrich, St. Louis, MI, USA), 20 × 10 × 18 cm in size, was saturated with mobile phase for 20 min. Development was carried out over 9 cm from the starting line at a temperature of 20 °C. Next, the plates were dried at room temperature, and the spots were observed under ultraviolet light at 254 nm and/or 366 nm (UV lamp, Camag, Basel, Switzerland). In each case, sharp and symmetric spots without a tendency for tailing were obtained. Each experiment was run in triplicate and mean RF (retardation factor) values were calculated.
Starting from the RF values, the RM parameters were computed as described in the formula:RM = log(1/RF − 1)
The linear correlations between the RM values of the substances and the concentration of methanol in mobile phases were calculated for each compound with the Soczewiński-Wachtmeister equation [22]:RM = RM0 + aC where C is the concentration of the organic modifier (in %) in the mobile phase, a is the slope, and RM0 is the […].

Data set [3] addresses T2, 5-HT1A (Homo sapiens, UniProt P08908).
T2 construct: expressed in transfected cells; host or cells: HEK-293
T2 sequence (P08908 1-422): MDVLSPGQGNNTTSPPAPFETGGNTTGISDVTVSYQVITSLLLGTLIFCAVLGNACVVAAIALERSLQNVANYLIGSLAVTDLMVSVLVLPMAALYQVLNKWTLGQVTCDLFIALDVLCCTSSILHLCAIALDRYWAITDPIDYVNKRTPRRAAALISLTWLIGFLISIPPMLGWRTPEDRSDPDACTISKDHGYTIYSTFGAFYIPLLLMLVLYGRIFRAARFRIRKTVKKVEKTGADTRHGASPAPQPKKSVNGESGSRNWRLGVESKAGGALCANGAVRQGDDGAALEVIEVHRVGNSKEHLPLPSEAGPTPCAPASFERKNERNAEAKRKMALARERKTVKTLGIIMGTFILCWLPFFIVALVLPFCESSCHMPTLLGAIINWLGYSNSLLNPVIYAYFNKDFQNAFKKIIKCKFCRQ
Description: Radioligand binding assay, 5-HT1A, [3H]-8-OH-DPAT. The following applies: human receptor stably expressed in HEK-293 cells.

Data set [4] deals with T3, human serotonin 5-HT6R (Homo sapiens, UniProt P50406).
T3 construct: expressed in transfected cells; host or cells: HEK-293
T3 sequence (P50406 whole entry): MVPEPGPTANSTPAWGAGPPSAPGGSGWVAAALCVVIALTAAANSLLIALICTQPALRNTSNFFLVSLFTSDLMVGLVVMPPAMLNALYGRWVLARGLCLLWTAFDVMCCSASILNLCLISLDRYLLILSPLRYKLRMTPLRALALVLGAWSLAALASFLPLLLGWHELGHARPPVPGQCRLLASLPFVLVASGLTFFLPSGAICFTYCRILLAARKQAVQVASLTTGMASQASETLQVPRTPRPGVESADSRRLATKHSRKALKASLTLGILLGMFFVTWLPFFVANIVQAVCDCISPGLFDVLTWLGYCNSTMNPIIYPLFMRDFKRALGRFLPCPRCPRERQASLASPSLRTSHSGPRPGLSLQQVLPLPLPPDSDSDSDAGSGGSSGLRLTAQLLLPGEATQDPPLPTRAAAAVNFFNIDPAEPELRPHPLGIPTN
In words: Radioligand binding assay, 5-HT6R, [3H]-LSD displacement. The following applies: for Ki: human receptor stably expressed in HEK-293 cells, mean of at least two independent experiments, read-out: Ki 5-HT6 [3H]-LSD. The protocol:
Five selective radioligands were employed (Table 1).
Radioligand binding assays were used to determine the affinity of the synthesized compounds for human serotonin 5-HT6R, which were stably expressed in HEK-293 cells. […] Each compound was tested in triplicate at 7 to 8 different concentrations (10^−11 to 10^−4 M). The inhibition constants (Ki) were calculated using the Cheng–Prusoff equation [40], and the results are expressed as the mean of at least two independent experiments.

For data set [5], the target named is T4, 5-HT7bR (Homo sapiens, UniProt P34969).
T4 construct: expressed in transfected cells; host or cells: HEK-293
T4 sequence (P34969 1-432 limits assumed): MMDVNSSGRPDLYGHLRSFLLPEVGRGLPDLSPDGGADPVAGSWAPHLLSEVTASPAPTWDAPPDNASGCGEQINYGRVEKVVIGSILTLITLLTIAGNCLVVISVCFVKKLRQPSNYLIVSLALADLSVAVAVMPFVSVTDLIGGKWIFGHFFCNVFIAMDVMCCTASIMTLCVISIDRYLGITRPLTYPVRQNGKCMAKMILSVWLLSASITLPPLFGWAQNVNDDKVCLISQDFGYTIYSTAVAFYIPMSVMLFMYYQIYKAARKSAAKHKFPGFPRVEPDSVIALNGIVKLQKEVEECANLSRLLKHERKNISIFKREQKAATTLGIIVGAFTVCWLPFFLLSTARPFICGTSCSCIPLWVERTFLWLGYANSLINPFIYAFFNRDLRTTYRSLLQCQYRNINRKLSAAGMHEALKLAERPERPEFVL
Description: Radioligand binding assay, 5-HT7bR, [3H]-5-CT. The following applies: human 5-HT7b receptor stably expressed in HEK-293 cells; read-out: Ki 5-HT7 [3H]-5-CT.

For data set [6], the target named is T5, 5-HT2A (Homo sapiens, UniProt P28223).
T5 construct: expressed in transfected cells; host or cells: HEK-293
T5 sequence (P28223 whole entry): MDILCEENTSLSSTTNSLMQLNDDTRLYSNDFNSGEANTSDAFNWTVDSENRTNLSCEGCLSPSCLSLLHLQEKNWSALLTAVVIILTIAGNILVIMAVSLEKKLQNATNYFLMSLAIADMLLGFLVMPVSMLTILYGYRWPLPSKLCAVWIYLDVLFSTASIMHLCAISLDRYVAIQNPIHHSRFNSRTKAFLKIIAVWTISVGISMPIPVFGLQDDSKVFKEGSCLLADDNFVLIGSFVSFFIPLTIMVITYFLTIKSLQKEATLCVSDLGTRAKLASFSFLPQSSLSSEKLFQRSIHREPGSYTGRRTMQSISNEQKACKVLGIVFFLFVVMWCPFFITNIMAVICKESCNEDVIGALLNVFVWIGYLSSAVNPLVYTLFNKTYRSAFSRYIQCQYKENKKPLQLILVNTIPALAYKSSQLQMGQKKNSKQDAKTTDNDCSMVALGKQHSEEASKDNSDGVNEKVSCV
In words: Radioligand binding assay, 5-HT2A, [3H]-Ketanserin. The following applies: human receptor stably expressed in HEK-293 cells.

Data set [7] can be described thus: Body weight of non-obese rats fed palatable diet (model of excessive eating). It counts as in vivo, rat. The text has this:
In order to determine the anorectic activity of 6 or 26, the model of excessive eating was used. Male Wistar rats (170–190 g) were housed in a pair in plastic cages in constant temperature facilities exposed to a light-dark cycle. Water and food were available ad libitum. Two groups of 6 rats were fed with diets consisting of milk chocolate with nuts, cheese, salted peanuts, and 7% condensed milk and also had access to standard feed (Labofeed B, Morawski Manufacturer Feed, Kcynia, Poland) and water ad libitum for 3 weeks. Palatable control group (palatable diet + vehicle) received vehicle (1% Tween 80, intraperitoneally), while palatable test group (palatable diet + 6 or palatable + 26) was injected (intraperitoneally) with 6 or 26 at the dose of 5 mg/kg b.w. dissolved in 1% Tween 80 (1 mL/kg). Body weights were measured daily, immediately prior to administration of drugs.
The palatable diet contained: 100 g peanuts—614 kcal; 100 mL condensed milk—131 kcal; 100 g milk chocolate—529 kcal; 100g cheese (Greek type)—270 kcal. The standard diet contained 100 g feed—280 kcal.

The nature of data set [8]: Body weight of non-obese rats fed only standard diet. It counts as in vivo, rat. The following applies: rats consuming standard feed, 5 mg/kg b.w. i.p. Here is the method: Male Wistar rats (170–190 g) were housed in a pair in plastic cages in constant temperature facilities exposed to a light-dark cycle. Control group (standard diet + vehicle) received vehicle (1% Tween 80, intraperitoneally), while the test group (standard diet + 6 or standard diet + 26) was injected (intraperitoneally) with 6 or 26 at the dose of 5 mg/kg b.w. dissolved in 1% Tween 80 (1 mL/kg). Body weights were measured daily immediately prior to administration of drugs.

The subject of data set [9] is HEK-293 cells. In words: Toxicity in vitro, MTS test. In kind it is cell-based. The following applies: 72 h. Here is the method:
The preliminary evaluation of the safety profile for the most promising 5-HT6R ligands 6 and 26 was performed in vitro with the HEK-293 eukaryotic cell line. The compounds examined were dissolved in culture growth media and incubated with cells for 72 h. Next, the MTS test was applied to determine the viability of the cells. […] The reference cytostatic drug doxorubicin (DX) at the very low concentration 1 μM was also cytotoxic.
The ATCC CRL 1573 HEK-293 cells were seeded in 96-well plates (NuncTM) at a concentration of 1 × 10^4 cells/well in 200 μL in Dulbecco’s Modified Eagle’s Medium (Gibco®) supplemented with 10% fetal bovine serum (Gibco®), and cultured at 37 °C in an atmosphere containing 5% of CO2 for 24 h to reach 60% confluence. The 10 mM stock solutions of 5-HT6R ligands 6 and 26 in DMSO were diluted into fresh growth medium and added into the microplates at the final concentrations 0.1 μM –100 μM. […] The cytostatic drug doxorubicin (Sigma-Aldrich) at the concentration 1 μM was used as a reference. After 72 h of incubation 20 μL of CellTiter 96® AQueous Non-Radioactive Cell Proliferation Assay (MTS) (Promega®) was added to each well and the cells were incubated under the same conditions for 2 h. The absorbance of the samples was measured using a microplate reader EnSpire (PerkinElmer, Waltham, MA, USA) at 490 nm. Statistical significance was analyzed by GraphPad Prism™ software v. 5.01 (GraphPad Software, La Jolla, CA, USA) using One-way ANOVA and Bonferroni’s Multiple Comparison Post Test.
In general terms: Tetrazolium dyes change colour on reduction, which living cells bring about.

Values joined by “and” are separate entries in the source; they are usually repeats but may differ in a detail not shown here. Equal values may be shown once.

T1 sequence (P14416 whole entry): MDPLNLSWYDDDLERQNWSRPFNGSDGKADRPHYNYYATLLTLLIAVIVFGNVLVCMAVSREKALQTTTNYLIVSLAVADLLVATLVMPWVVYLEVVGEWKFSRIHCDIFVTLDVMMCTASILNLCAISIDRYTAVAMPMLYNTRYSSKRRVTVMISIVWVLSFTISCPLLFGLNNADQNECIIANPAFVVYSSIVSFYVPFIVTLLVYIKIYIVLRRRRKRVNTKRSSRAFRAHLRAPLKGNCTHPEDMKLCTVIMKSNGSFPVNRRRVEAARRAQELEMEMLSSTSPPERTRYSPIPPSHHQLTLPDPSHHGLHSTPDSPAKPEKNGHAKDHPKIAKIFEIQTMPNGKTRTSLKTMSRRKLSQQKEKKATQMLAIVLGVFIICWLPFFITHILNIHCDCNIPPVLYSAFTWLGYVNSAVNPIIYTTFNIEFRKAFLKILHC

As a reminder, the Ki is the dissociation constant of the complex between target and ligand, obtained from inhibition or displacement. Turning to `CN1CCN(c2nc(N)nc(CN3C(=O)NC(c4ccc(Cl)cc4)(c4ccc(Cl)cc4)C3=O)n2)CC1` [Compound 8, 3-((4-Amino-6-(4-methylpiperazin-1-yl)-1,3,5-triazin-2-yl)methyl)-5,5-bis(4-chlorophenyl)imidazolidine-2,4-dione], the inhibition constant (Ki) is 6.85 µM in data set [1], 3.05 µM in data set [3], 1.06 µM in data set [4] and 0.594 µM in data set [5]. The RM0 in data set [2] is 4.46.

For the compound `CN1CCN(c2nc(N)nc(CN3C(=O)NC(C)(c4ccc(Cl)cc4)C3=O)n2)CC1` (stereo not shown) [Compound 7, 3-((4-Amino-6-(4-methylpiperazin-1-yl)-1,3,5-triazin-2-yl)methyl)-5-(4-chlorophenyl)-5-methylimidazolidine-2,4-dione], the Ki in data set [1] is 31.2 µM; in data set [3], 28.1 µM; in data set [4], < 0.2 µM and 0.176 µM; in data set [5], 0.938 µM. Besides, in data set [2], the RM0 is 3.51.

For the compound `CN1CCN(c2nc(N)nc(CN3C(=O)NC(C)(c4ccc(Cl)c(Cl)c4Cl)C3=O)n2)CC1` (stereo not shown) [Compound 23, 3-((4-Amino-6-(4-methylpiperazin-1-yl)-1,3,5-triazin-2-yl)methyl)-5-(2,3,4-trichlorophenyl)-5-methylimidazolidine-2,4-dione], the inhibition constant Ki in data set [1] was 4.74 µM; in data set [6], 3.43 µM; in data set [3] it was 6.03 µM; in data set [4], < 0.2 µM and 0.195 µM; in data set [5], 8.9 µM. Moreover, the RM0 in data set [2] is reported as 4.49.

As for `CN1CCN(c2nc(N)nc(CN3C(=O)N(Cc4ccc(Cl)cc4)C(C)(C)C3=O)n2)CC1` [Compound 6, 1-(4-Chlorobenzyl)-3-((4-amino-6-(4-methylpiperazin-1-yl)-1,3,5-triazin-2-yl)methyl)-5,5-dimethylimidazolidine-2,4-dione], the Ki in data set [1] was 4.1 µM; in data set [3], 23.3 µM; in data set [4], < 0.2 µM and 0.127 µM; in [5], 3.71 µM. Further, in [2], the RM0 is recorded as 3.39. The “day of experiment from which groups differed significantly” value in data set [7] (rats fed palatable feed, 5 mg/kg b.w. i.p. daily) was 16 days. Also, in data set [7] (rats fed palatable feed, 5 mg/kg b.w. i.p., 21 days), the “weight gain vs control group” value is “significantly less weight gain”. The “body weight vs control animals fed standard feed” value in data set [7] (treated rats with access to preferential feed, 5 mg/kg b.w. i.p.) is reported as “differed significantly”. For the same compound, the “effect on body weight” value in data set [8] is “No effects on body weight”. Further, the “toxicity in HEK-293 cells” value in [9] (0.1 μM–100 μM) is on record as “low”. Besides, in [9] (100 μM, *** p < 0.001), the “viability of HEK-293 cells” value is recorded as “statistically significant decrease of viability”.

With `COc1cccc2c1C(=O)c1c(O)c3c(c(O)c1C2=O)C[C@@](O)(C(=O)CO)C[C@@H]3O[C@H]1C[C@H](N)[C@H](O)[C@H](C)O1` [doxorubicin, reference compound], the “viability of HEK-293 cells” value in [9] (1 μM) is “cytotoxic”.

Take `CN1CCN(c2nc(N)nc(CN3C(=O)N(Cc4ccc(Cl)cc4)C(=O)C3(C)C)n2)CC1` [Compound 5, 3-(4-Chlorobenzyl)-1-((4-amino-6-(4-methylpiperazin-1-yl)-1,3,5-triazin-2-yl)methyl)-5,5-dimethylimidazolidine-2,4-dione]: the Ki in data set [1] amounted to 5.01 µM; in data set [3], 15.4 µM; in data set [4] it was 4.28 µM; in data set [5], 1.62 µM. Also, the RM0 in [2] is reported as 3.22.

As for `CN1CCN(c2nc(N)nc(CN3C(=O)N(Cc4ccc5ccccc5c4)C(C)(C)C3=O)n2)CC1` [Compound 18], the inhibition constant Ki in [1] was 0.888 µM; in data set [6], 1.91 µM; in [3] it was 5.72 µM; in [4], < 0.2 µM and 0.182 µM; in data set [5] it was 1.53 µM. Besides, the RM0 in data set [2] is given as 4.04.

Regarding `CN1CCN(c2nc(N)nc(CN3C(=O)NC(C)(c4cccc5ccccc45)C3=O)n2)CC1` (stereo not shown) [Compound 25, 3-((4-Amino-6-(4-methylpiperazin-1-yl)-1,3,5-triazin-2-yl)methyl)-5-methyl-5-(naphthalen-1-yl)imidazolidine-2,4-dione], the Ki is 7.81 µM in data set [1]; 8.08 µM in data set [6]; 7.15 µM in data set [3]; < 0.2 µM and 0.121 µM in data set [4]; 3.37 µM in [5]. In addition, the RM0 in [2] is listed as 4.16. The selectivity in words entry in [4] (5-HT6R vs competitive GPCRs tested) is on record as “highly selective”.
